# Entries after “also recorded” stand apart in the source; their conditions may differ. Where two headings read alike, the source gives them in different places.
# Legend:
# human M2R = biological target: T1, human M2R (Homo sapiens, UniProt P08172); test: GloSensor cAMP assay (Gi-mediated cAMP inhibition); format: cell-based; details: for IC50: agonist
# T1 construct: expressed in transfected cells; host or cells: HEK-293T
# T1 sequence (P08172 1-466): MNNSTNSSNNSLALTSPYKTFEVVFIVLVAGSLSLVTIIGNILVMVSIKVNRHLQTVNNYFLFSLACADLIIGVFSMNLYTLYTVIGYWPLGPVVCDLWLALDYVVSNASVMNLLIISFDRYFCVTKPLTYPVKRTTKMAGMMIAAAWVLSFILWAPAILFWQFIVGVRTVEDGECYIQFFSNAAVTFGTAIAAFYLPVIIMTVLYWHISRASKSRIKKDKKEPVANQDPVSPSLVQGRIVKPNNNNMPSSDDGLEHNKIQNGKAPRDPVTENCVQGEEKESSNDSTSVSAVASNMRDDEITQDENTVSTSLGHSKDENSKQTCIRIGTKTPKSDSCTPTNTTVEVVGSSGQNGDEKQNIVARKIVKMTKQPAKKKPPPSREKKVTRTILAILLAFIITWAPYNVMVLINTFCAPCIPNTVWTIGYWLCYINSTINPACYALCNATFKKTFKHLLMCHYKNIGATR
# Procedure: To measure M2 muscarinic receptor induced (Gi-mediated) cAMP inhibition, HEK-293T cells (procured from NCCS, Pune) were co-transfected with human M2R and luciferase based cAMP biosensor (pGloSensor™-22F plasmid; Promega) using PEImax method of transfection in the ratio of 1:1. The transfected cells were incubated at 37° C. in tissue culture incubator with 5% CO2 for 14-16 hours. For GloSensor cAMP assay, after overnight incubation, media from the plate was aspirated and 100 μl of sodium luciferin solution in drug buffer (1×HBSS (pH7.4) and 20 mM HEPES) was added to the cell plates. The plates were then incubated at 37° C. in tissue culture incubator with 5% CO2 for 90 minutes. After incubation, cells were treated with 20 μl of 6× diluted standard carbamoyl choline (10000 nM to 0.01 nM) along with test compounds (in triplicates) and were incubated in a humidified tissue culture incubator at 37° C. with 5% CO2 for 10-15 minutes to get a steady state condition. Ligand incubation was followed by addition of 20 μl of 7×(70 μM) forskoline (FSK) to the plate. FSK incubation was followed by incubation at 37° C. for 10-15 minutes and measurement of luminescence per well using luminescence plate reader (BMG Labtech). The results were plotted as inhibition of FSK stimulated cAMP response (relative luminescence units) using nonlinear regression analysis by Graph-Pad prism V.
# C57BL/6 mice = test: Locomotor activity in open field arena; format: in vivo; details: 10 mg/kg i.p., acute, 60 minutes following injection, vs vehicle, p<0.05
# From the text: (§1) All animal experiments and procedures were executed in accordance with the guidelines established in the guide for the care and use of laboratory animals and were approved by the institutional animal ethics committee (IAEC) of CSIR-Central Drug Research Institute, Lucknow, India. In this study, male C57BL/6J mice (6-8 weeks old) weighing 22-25 g were used. They were housed on a 12-h light/dark cycle (lights on at 8.00 am) and food and water were provided ad libitum. Animals were acclimatized to the experimental room 30 minutes prior to the beginning of behavioral procedures. For experimental purpose, animals were randomly divided into four groups: vehicle, RG-02, scopolamine and scopolamine along with RG-02. In scopolamine along with RG-02 group, RG-02 (10 mg/kg, i.p) was injected thirty minutes prior to the scopolamine (0.5 mg/kg, i.p.) injections.
# Locomotor activity was tested according to the previously published protocol (Kelly et al, 1998) with slight modifications. Briefly, mice were put in the centre of a clear Plexiglas (40×40×30 cm) open-field arena and were allowed to explore the entire arena for 30 minutes. After 30 minutes of exploration, animals were injected with either RG-02 (10 mg/kg; i.p.) or 0.9% normal saline and were allowed to explore the arena for further 60 minutes. […]
# [1] = tested on: Scopolamine induced memory deficit; test: Novel object recognition (NOR) test, scopolamine induced memory deficit; format: in vivo, mice; details: RG-02 10 mg/kg i.p. + scopolamine 0.5 mg/kg i.p., 7th day
# From the text: as §1
# The NOR test was performed according to the protocol introduced by Ennaceur and Delacour (Ennaceur & Delacour, 1988) with slight modification.
# The NOR task procedure consisted of three sessions—[…], familiarization and test session. During habituation session, the mouse was placed in an open field (Square box of 40×40×40 cm), facing the wall of the arena, and allowed to explore the entire arena for 10 minutes. Following habituation period of 10 minutes, the mouse was returned to its home cage.
# Between every […] session, the whole arena was cleaned with 10% ethanol to reduce olfactory cues. […] During this session, the test animal was placed in the arena and was allowed to explore the entire arena with familiar and novel object, and its activity was also video recorded. To determine the retention of object memory, the recorded videos of test session were analyzed by independent observer who was unknown to treatment of mice to calculate the time spent in exploring both objects. Data are presented as % time of exploration of familiar or novel object, and discrimination index was calculated as per following equation: (Tn−Tf)/Tt: Discrimination Index […]
# [2] = tested on: Scopolamine induced memory deficit; test: Morris water maze (MWM) test, scopolamine induced learning deficit; format: in vivo, mice
# From the text: as §1
# The Morris water maze (MWM) test was performed according to Morris 1984, with slight modifications. Circular pool of dimensions-100 cm diameter and 45 cm depth, which was filled up to 25 cm from bottom with white colour water. Temperature of water was adjusted to 24-25° C. Pool was divided into four quadrants and a square platform of 10×10 cm in was placed into the tank at a fixed location in the centre of one of the four imaginary quadrants. Training sessions were conducted for 3 consecutive days and on 4th day a probe trial was performed. During training session, mouse was gently placed into the water facing the edge of the pool of one of the quadrant. If the mouse was able to find the platform before the 60 sec cut-off, it was allowed to stay over the platform for 5 more seconds followed by returning to its home cage. […] Total three trials/day were run for each mouse with minimum interval of 10-15 minutes between two trials, and latency to reach the platform was calculated. On the fourth day, for the probe trial, the platform was removed and the time spent in respective quadrant was calculated.
structure (smiles),measurement,setting,value
"O=C1CCC[C@@H]2[C@@H]1C[C@@]1(S(=O)(=O)c3ccccc3)C(=O)[C@@H]3c4ccccc4[C@H]1N32 [RG-02, (4aS,6S,6aR,11S,12aR)-6-(phenylsulfonyl)-1,2,3,4a,5,6,6a,12a-octahydro-6,11-methanoisoindolo[2,1-a]quinoline-4,13(11H)-dione]",agonist activity at M2 receptor (in words),human M2R,most potent agonist at M2 receptor; also recorded: selective M2 muscarinic receptor agonist with high activity
same,IC50,"human M2R; M2, N.A. = not active, read-out: pIC50/pEC50 (Mean ± SEM) M2 (converted)",4.17 nM
same,IC50,human M2R; read-out: IC50 at M2 receptor,4 nM
same,locomotor activity (total horizontal distance travelled),C57BL/6 mice,significantly increased locomotor activity; also recorded: neurostimulatory effect; also recorded: significant increase in locomotor activity
same,percent time exploration for novel object,[1]; vs scopolamine alone / vehicle,significantly increased
same,novel object discrimination index,"[1]; vs scopolamine alone, p<0.05",significantly blocked the negative effect of scopolamine on novel object discrimination; also recorded: significantly increased
same,time spent in platform quadrant (probe trial),"[2]; RG-02 10 mg/kg i.p. + scopolamine 0.5 mg/kg i.p., day 4, vs scopolamine alone",increased the time spent in the quadrant with platform; also recorded: significantly increased
same,learning the location of hidden platform,"[2]; RG-02 alone 10 mg/kg i.p., vs vehicle",no per se effect
